The data set can be described thus: Stability in formulation: creatine in oil-in-water emulsion stored at 45° C. Type of data set: physicochemical. How it is done: 1.5% of the microcapsules from Example 4 were stirred into an oil-in-water emulsion and stored at T=45° C.

For `CN(CC(=O)O)C(=N)N` [Free creatine, creatine], the “creatine [%]” value (0 weeks) is on record as 100% and the “creatine [%]” value (stored at T=45° C., 5 weeks) turned out to be 40%.

For the origin of these results see patent US20080274149A1, “Encapsulation and Controlled Release of Biologically Active Ingredients with Enzymatically Degradable Microparticulate, Hyperbranched Polymers” (priority 2005, published 2008).
